# Patent US11458127B2, “Methods of treating brain tumors using combination therapy” (SERVIER PHARMACEUTICALS LLC, priority 2017, dated 2022)
# Where two headings read alike, the source gives them in different places.
# What was measured:
# mutant IDH1 proteins [1] = details: biochemical assays; cited from earlier work
# mutant IDH1 proteins [2] = details: cellular assays; cited from earlier work
# 2HG production = test: animal or person; details: po, read-out: Inhibition of 2HG production within the brain tumors
# Procedure: Ivosidenib was orally dosed at 150 mg/kg, twice daily, for Groups 3-5.
# mutant IDH1 (mIDH1) = details: cited from earlier work
# mutant IDH2 (mIDH2) = details: cited from earlier work
# mIDH1-driven gliomas = details: some model systems; D. Rohle et al. 2013; cited from earlier work
# mIDH1 cells = details: in vitro; R. J. Molenaar et al. 2015; cited from earlier work
Compound,Activity on mutant IDH1 proteins (mutant IDH1 proteins [1]),Activity on mutant IDH1 proteins (mutant IDH1 proteins [2]),inhibition at 150 mg/kg (2HG production),Inhibition of mutant IDH1 (mutant IDH1 (mIDH1)),Inhibition of mutant IDH2 (mutant IDH2 (mIDH2)),Effect on growth of mIDH1-driven gliomas (mIDH1-driven gliomas),Sensitivity of treated mIDH1 cells to radiation therapy (mIDH1 cells)
"N#Cc1ccnc(N2C(=O)CC[C@H]2C(=O)N(c2cncc(F)c2)[C@H](C(=O)NC2CC(F)(F)C2)c2ccccc2Cl)c1 [Ivosidenib, (S)—N—((S)-1-(2-Chlorophenyl)-2-(3,3-difluorocyclobutylamino)-2-oxoethyl)-1-(4-cyanopyridin-2-yl)-N-(5-fluoropyridin-3-yl)-5-oxopyrrolidine-2-carboxamide]",inhibitor of mutant IDH1 proteins,inhibitor of mutant IDH1 proteins,> 98%,–,–,–,–
Cc1ccccc1C(C(=O)NC1CCCCC1)N(C(=O)Cn1ccnc1C)c1cccc(F)c1 (stereo not shown) [AGI-5198],–,–,–,inhibit mutant IDH1 (mIDH1),not mutant IDH2 (mIDH2),can repress growth of mIDH1-driven gliomas in some model systems,desensitized to radiation therapy
